Test results from patent US9365512B2, “Isoindoline derivatives, pharmaceutical compositions containing them, and their use in therapy” (AbbVie Deutschland GmbH & Co. KG, priority 2012, dated 2016).

What was measured:
[1] = Metabolic stability in human liver microsomes (microsomal clearance); format: in vitro ADME; settings: 0.5 μM test substance, 0.25 mg microsomal protein/ml, pH 7.4, 37° C., NADPH
Method: The metabolic stability of a compound can be measured for example by incubating a solution of this compound with liver microsomes from particular species (for example rat, dog or human) and determining the half-life of the compound under these conditions (RS Obach, Curr Opin Drug Discov Devel. 2001, 4, 36-44). It is possible in this connection to conclude from an observed longer half-life that the metabolic stability of the compound is improved. The stability in the presence of human liver microsomes is of particular interest because it makes it possible to predict the metabolic degradation of the compound in the human liver. Compounds with increased metabolic stability (measured in the liver microsome test) are therefore probably also degraded more slowly in the liver. The slower metabolic degradation in the liver may lead to higher and/or longer-lasting concentrations (active levels) of the compound in the body, so that the elimination half-life of the compounds of the invention is increased. Increased and/or longer-lasting active levels may lead to a better activity of the compound in therapeutic treatment. […]
Metabolic stability was determined as follows:
0.5 μM test substance was preincubated together with human liver microsomes (0.25 mg of microsomal protein/ml) in 0.05 M potassium phosphate buffer of pH 7.4 in microtiter plates at 37° C. for 5 min. […] The samples were frozen until analyzed. The remaining concentration of undegraded test substance was determined by LC MSMS. The half-life (T½) was determined from the gradient of the signal of test substance/unit time plot, allowing to calculate the half-life of the test substance, assuming first order kinetics, from the decrease in the concentration of the compound with time. The microsomal clearance (mCl) was calculated from mCl=ln 2/T½/(content of microsomal protein in mg/ml)×1000 (modified from references: Di, The Society for Biomolecular Screening, 2003, 453-462; Obach, DMD, 1999 vol 27. N 11, 1350-1359).

human GlyT1c transporter = target: T1, human GlyT1c transporter (Homo sapiens, UniProt P48067); experiment: Radioligand binding assay using recombinant CHO cell membranes expressing human GlyT1; settings: read-out: radioligand binding Kiapp
T1 construct: expressed in transfected cells; host or cells: CHO cells (recombinant; membranes)
T1 sequence (P48067 1-706): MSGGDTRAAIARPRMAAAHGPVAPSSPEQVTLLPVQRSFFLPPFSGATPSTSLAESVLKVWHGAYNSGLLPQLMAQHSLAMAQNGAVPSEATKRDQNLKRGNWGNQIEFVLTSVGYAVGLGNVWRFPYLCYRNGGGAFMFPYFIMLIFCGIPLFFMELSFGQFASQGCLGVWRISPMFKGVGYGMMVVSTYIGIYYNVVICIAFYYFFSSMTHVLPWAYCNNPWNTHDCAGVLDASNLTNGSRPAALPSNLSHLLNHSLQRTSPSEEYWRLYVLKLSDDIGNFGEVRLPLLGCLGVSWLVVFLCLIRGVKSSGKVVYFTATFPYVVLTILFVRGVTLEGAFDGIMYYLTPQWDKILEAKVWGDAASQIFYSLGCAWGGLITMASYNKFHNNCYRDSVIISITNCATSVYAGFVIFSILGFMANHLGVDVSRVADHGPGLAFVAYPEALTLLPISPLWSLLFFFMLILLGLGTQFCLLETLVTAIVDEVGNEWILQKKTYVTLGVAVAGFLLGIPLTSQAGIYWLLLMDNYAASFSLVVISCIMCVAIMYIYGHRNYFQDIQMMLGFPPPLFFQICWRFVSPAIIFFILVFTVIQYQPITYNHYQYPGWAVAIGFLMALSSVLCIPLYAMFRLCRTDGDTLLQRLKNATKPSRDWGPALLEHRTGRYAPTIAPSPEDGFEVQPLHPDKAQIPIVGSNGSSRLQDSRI
Method: 2. Radioligand Binding Assays Using Recombinant CHO Cell Membranes Expressing Human GlyT1:
Radioligand binding to human GlyT1c transporter-expressing membranes was determined as described in Mezler et al., Molecular Pharmacology 74:1705-1715, 2008.

SMILES	human mCl [1] [µL/min/mg]	Ki (human GlyT1c transporter) [nM]
Cn1cnc(S(=O)(=O)NCCOc2ccc3c(c2)C(Cc2ccccc2)NC3)c1 (stereo not shown) [Example 5, N-[2-(3-Benzylisoindolin-5-yl)oxyethyl]-1-methyl-1H-imidazole-4-sulfonamide]	<1	< 100
Cn1cc(S(=O)(=O)NCCOc2ccc3c(c2)C(Cc2ccccc2)NC3)cn1 (stereo not shown) [Example 7, N-[2-(3-Benzylisoindolin-5-yl)oxyethyl]-1-methyl-1H-pyrazole-4-sulfonamide]	<10	< 100
